From patent publication US20240117303A1, “METHODS AND COMPOSITIONS FOR GENERATING HUMAN MIDBRAIN DOPAMINERGIC NEURONS FROM NEURAL PROGENITOR CELLS” (Trailhead Biosystems Inc., priority 2022, published 2024) come the findings set out here.

Several values for one entry are separate records, joined by “and”; a condition that tells them apart may be missing. Equal values may be shown once.

For one test, the system named is stage 3 immature neurons. The test can be described thus: HD-DoE 8-factor experiment for stage 4 recipe (FIG. 27, 28, 31). The test is classed as cell-based, human. Conditions: for impact on expression of NR4A2: 8-factor model / dynamic profile; for expression level of PITX3 in absence of the factor / expression level of NR4A2 in absence of the factor: stage 4 recipe, other factors present; for expression level of PITX3 in absence of the factor: 40 with all factors; for expression level of NR4A2 in absence of the factor: 400 with all factors; for factor contribution: model maximized for NR4A2. The protocol: To further differentiate the cells to a mature neuronal identity, additional HD-DoE experiments were performed on the cells that were cultured in stage 1, stage 2 and stage 3 differentiation media. After 4 days, gene expression of cells in different combinatorial conditions were investigated. At this time, we focused on maximal expression of more mature dopaminergic genes such as NR4A2, PITX3 and TH (Tiklová et al. (2020) Nat Commun. 11:2434; Fiorenzano et al. (2021) Nat Commun., 12:7302). In one model, cells were treated with a combinatorial matrix with eight inputs including CHIR99021, BDNF, GDNF, Rosiglitazone, GW7647, DBZ and heparin.
(§1) To assess the impact of elimination of each validated factor identified in Example 5 for the stage 3 and stage 4 recipes, we used dynamic profile analysis and compared the expression level of genes of interest in absence of each finalized factor while others are present.
In the stage 4 recipe, each of six finalized factors were excluded while other factors were present and the expression levels of NR4A2 and PITX3 were assessed compared to the presence of all factors.

In test [1] the test system is human pluripotent stem cells. The test can be described thus: HD-DoE 13-factor experiment for stage 1 recipe, gene expression modeled after 3-day treatment; dynamic profile and factor criticality analysis. It counts as cell-based. The text has this: This example utilizes a method of High-Dimensional Design of Experiments (HD-DoE), as previously described in Bukys et al. (2020) Iscience 23:101346. The method employs computerized design geometries to simultaneously test multiple process inputs and offers mathematical modeling of a deep effector/response space. The method allows for finding combinatorial signaling inputs that control a complex process, such as during cell differentiation. It allows testing of multiple plausible critical process parameters, as such parameters impact output responses, such as gene expression. Because gene expression provides hallmark features of the phenotype of, for example, a human cell, the method can be applied to identify, and understand, which signaling pathways control cell fate. In the current example, the HD-DOE method was applied with the intent to find conditions for induction of midbrain neural progenitor-expressed genes, directly from the pluripotent stem cell state.
To develop the recipe for each stage, the impact of agonists and antagonists of multiple signaling pathways (referred to herein as “effectors”) on the expression of two sets of 53 pre-selected genes after a 3-day treatment was tested and modeled. These effectors are small molecules or proteins that are commonly used during stepwise differentiation of stem cells to specific fates. The choice of the effectors to test was based on current literature on neural induction in the midbrain region of the developing brain and differentiation of stem cells to neural progenitors.
To test the effectors, experiments with at least 8 factors were designed that can assess the response of cells to 48 or more different combinations of effectors in a range of concentrations. To analyze the models, we focused on expression of genes expressed in the midbrain region, including OTX2, DMBX1, FOXA2, LMX1A, and on the absence of GBX2, which is a hindbrain marker. The impact of each effector on gene expression level is defined by a parameter called factor contribution that is calculated for each effector during the modeling.
To identify the recipe of stage 1 of differentiation, cells were treated with various effectors for 3 days and the gene expression of cells was modeled. […] This model consisted of 13 factors including LDN193189, PD173074, BLU9931, Purmorphamine, SC79, MK2206, ZM336372, PD0325901, CHIR99021, XAV939, UCLA-gp130, Tofacitinib and GO 6983.
To assess the impact of elimination of each validated factor, we used dynamic profile analysis and compared the expression level of genes of interest in absence of each finalized factor while others are present.
In the stage 1 recipe, each of the five finalized factors were removed while the other four factors were present and the expression levels of OTX2, DMBX1, FOXA2 and LMX1A was assessed compared to the levels in the presence of all five factors (FIG. 11A-B). […] Expression level of DMBX1 increased in absence of LDN193189, however values of OTX2, FOXA2 and LMX1A decreased.

Test [2] concerns stage 2 neural progenitors. As to the kind of experiment: HD-DoE 12-factor model for stage 3 recipe (FIG. 19-23, 29). The test is classed as cell-based, human.
Source text: To develop the neuronal differentiation recipes, the impact of various agonist and antagonists (effectors) on maturation of MB neural progenitors was investigated using the HD-DoE method described in Example 1. These effectors were chosen based on available literature on developmental biology, differentiation of stem cells as well as mouse and human single cell RNA-seq data from midbrain neurons at the time.
To engineer the recipe of stage 3 of differentiation, cells were first cultured in the stage 1 and stage 2 media as described herein, then they were treated with combinations of 8 or 12 factors for 3 days and the gene expression of cells in each condition was modeled. To guide the cells towards a subtype of midbrain dopaminergic neurons that reside in Substantia Nigra pars compacta (SNc) region of the brain, neural progenitors need to be SOX6^+ (Pereira et al. (2021) Cell Rep. 37:109975 Oosterveen et al. (2021) Stem Cell Reports 16:2718-2735 Poulin et al. (2020) Trends Neurosci. 43:155-169). CORIN, NGN2 and MSX1 are other markers involved in neurogenesis of dopaminergic neurons originating from floorplate region of developing midbrain (Wang et al. (2020) Cells 9:1489; Samata et al. (2016) Nat Commun. 7:13097; Ono et al. (2007) Development 134:3213-3225; Prakash et al. (2006) J. Physiol. 575:403410).
Therefore, we focused on maximizing expression of SOX6, CORIN, NGN2 and MSX1 in modeling experiments. One of the 12-factor models, the results of which are shown in FIG. 19, including LDN193189, AGN193109, BMP7, TTNPB, PD0325901, A8301, MHY1485, CHIR99021, XAV939, SANT-1, Purmorphamine and MK2206, provided a combination set that could maximize expression level of CORIN to more than 2000.
as §1
In the stage 3 recipe, each of the finalized factors were removed in their respective models while other factors were present and the expression level of genes of interest was assessed compared to presence of all factors. When AGN193109 was excluded, level of all CORIN, KCNJ6, MSX1 and SOX6 decreased from 900 to 450, 50 to 35, 140 to 110 and 105 to 60, respectively. […] When PD0325901 was removed, expression levels of CORIN and KCNJ6 increased to 1200 and 70 while levels of MSX1 and SOX6 decreased to 105 and 20. In the absence of CHIR99021, the expression level of CORIN was again increased to 1200 while the level of KCNJ6 and MSX1 dropped to 50 and 115. […] Therefore, it was decided to include this compound in the final recipe. […] Therefore, CHIR99021 was also included in the final recipe.

The test system of test [3] is stage 2 neural progenitors. The test can be described thus: HD-DoE another 12-factor model for stage 3 recipe (FIG. 24, 25, 30). The test is classed as cell-based, human. The protocol:
In another 12-factor model, additional factors including Activin A, Takinib (TAK inhibitor), FGF8b, AZD3147 (mTOR antagonist), MHY1485 (mTOR agonist), and Yhhu-3792 (Notch agonist) were tested. Some of the factors from previous model (BMP7, A 8301, LDN193189, PD0325901, MK2206 and DBZ) were also included.
as §1
In another model, to determine the combinatorial effect of AZD3147 and DBZ on gene profile of cells in presence of other factors of final recipe, the expression levels of SOX6 and MSX1 were compared in the absence of each of the factors in the presence of PD0325901 and BMP7. These two compounds were the only final compounds that were included in inputs of this experimental model The results are shown in FIG. 30A and FIG. 30B. […] When DBZ was removed, the level of SOX6 and MSX1 both decreased to 140 and 35, respectively.

Turning to `CC(C)(Sc1ccc(CCN(CCCCC2CCCCC2)C(=O)NC2CCCCC2)cc1)C(=O)O` [GW7647], in the test on stage 3 immature neurons, the “impact on expression of NR4A2” value is “positive regulatory impact”, the “expression level of PITX3 in absence of the factor” value is listed as “lower expression levels” and the “expression level of NR4A2 in absence of the factor” value (“expression level of NR4A2” below) is “lower expression levels”.
In the case of heparin, in the test on stage 3 immature neurons, the “impact on expression of NR4A2” value is recorded as “positive regulatory impact”, the “expression level of PITX3 in absence of the factor” value was found to be 30 and the “expression level of NR4A2” value was “did not significantly change”.
Regarding `NCCc1ccc(O)c(O)c1` [Dopamine], in the test with stage 3 immature neurons, the “impact on expression of NR4A2” value was “positive regulatory impact”, the “expression level of PITX3 in absence of the factor” value is 20 and the “expression level of NR4A2” value is around 0.
Turning to `O=C(NOC[C@H](O)CO)c1ccc(F)c(F)c1Nc1ccc(I)cc1F` [PD0325901], the “impact on expression of OTX2” value in test [1] (dynamic profile, 13 effectors) is reported as “positive impact”. Also, the factor contribution in test [1] (model optimized for maximum expression of OTX2, positive impact, 3-day treatment) amounted to 18.1; in test [2] (model optimized for maximum expression of KCNJ6, positive regulators) it was 10.9; in test [2] (model optimized for maximum expression of SOX6, positive impact), 13.5. The “expression level of LMX1A in absence of the factor” value in test [1] (stage 1 recipe, other four factors present, 300 with all five factors) was 500. Besides, the “expression level of FOXA2 in absence of the factor” value in test [1] (stage 1 recipe, other four factors present, 600 with all five factors) came out at 700. Moreover, the “expression level of DMBX1 in absence of the factor” value in test [1] (stage 1 recipe, other four factors present, 3000 with all five factors) is given as 900. Further, the “expression level of KCNJ6 in absence of the factor” value in test [2] (stage 3 recipe, other factors present, 50 with all factors) is 70. Moreover, in test [2] (stage 3 recipe, other factors present, 105 with all factors), the “expression level of SOX6 in absence of the factor” value is 20. For the same molecule, the “expression level of MSX1 in absence of the factor” value in test [2] (stage 3 recipe, other factors present, 140 with all factors) is 105. Also, the “expression level of CORIN in absence of the factor” value in test [2] (stage 3 recipe, other factors present, 900 with all factors) is 1200. Also, in test [3] (AZD3147, DBZ, PD0325901 and BMP7 set, 45 with all factors), the “level of MSX1 in absence of the factor” value worked out at 40. Further, in test [3] (AZD3147, DBZ, PD0325901 and BMP7 set, 185 with all factors), the “level of SOX6 in absence of the factor” value was 165. The “impact on expression of SOX6” value in test [3] (dynamic profile, 12 effectors) is “positive impact”.
As for `CN(CCOc1ccc(CC2SC(=O)NC2=O)cc1)c1ccccn1` (centres unmarked) [Rosiglitazone], the factor contribution with stage 3 immature neurons (negative impact) was determined as 13.6.

B1: GDNF: glial cell line-derived neurotrophic factor, GDNF agonist (protein, UniProt P39905 78-211, looked up)
Glial cell line-derived …: SPDKQMAVLPRRERNRQAAAANPENSRGKGRRGQRGKNRGCVLTAIHLNVTDLGLGYETKEELIFRYCSGSCDAAETTYDKILKNLSRNRRLVSDKVGQACCRPIAFDDDLSFLDDNLVYHILRKHSAKRCGCI
In the case of B1, in the test on stage 3 immature neurons, the “impact on expression of NR4A2” value is “positive regulatory impact”, the “expression level of PITX3 in absence of the factor” value came to 25 and the “expression level of NR4A2” value turned out to be 300.

B2: BDNF: brain-derived neurotrophic factor, BDNF agonist (protein, UniProt P23560 19-247, looked up)
Neurotrophic factor BDNF …: APMKEANIRGQGGLAYPGVRTHGTLESVNGPKAGSRGLTSLADTFEHVIEELLDEDQKVRPNEENNKDADLYTSRVMLSSQVPLEPPLLFLLEEYKNYLDAANMSMRVRRHSDPARRGELSVCDSISEWVTAADKKTAVDMSGGTVTVLEKVPVSKGQLKQYFYETKCNPMGYTKEGCRGIDKRHWNSQCRTTQSYVRALTMDSKKRIGWRFIRIDTSCVCTLTIKRGR
For the molecule B2, in the test on stage 3 immature neurons, the “impact on expression of NR4A2” value is listed as “positive impact”, the “expression level of PITX3 in absence of the factor” value came to 10 and the “expression level of NR4A2” value was 100. In the test with stage 3 immature neurons (dynamic profile, 8 effectors), the “impact on expression level of PITX3” value is “positive impact”. The factor contribution with stage 3 immature neurons (positive regulatory impact, after 4 days) was 17 and 17.1.
